Test results: publication PMC8070033, “Bimetallic Iron–Palladium Catalyst System as a Lewis-Acid for the Synthesis of Novel Pharmacophores Based Indole Scaffold as Anticancer Agents” (Molecules, 2021)

How the values were obtained:
Human fibroblast BJ = test: Cytotoxicity MTT assay, BJ human fibroblast cells; format: cell-based; settings: 48 hrs, ± SD from three independent experiments, NA: did not show activity at 30 µM
Method: (§1) Cytotoxicity against BJ Human fibroblast cells, and anti-cancer activity against PC3, HeLa and MCF-7 cancer cell lines were evaluated by following the procedure as described in the literature (Supplementary Materials).
The Biological Activity Assays Protocols […]
(§2) of positive control – mean of O.D of negative control)*100). […]
(§3) Standard drug used in the MTT assay was doxorubicin. […]
B. Cytotoxicity assay Protocol (BJ Human fibroblast cells) […]
standard MTT (3-[4, 5-dimethylthiazole-2-yl]-2, 5-diphenyl-tetrazolium bromide) colorimetric assay (Price & J. McMillan1, 1990). For this purpose, BJ Human fibroblast cells were cultured in Dulbecco’s Modified Eagle Medium, supplemented with 10% of fetal bovine serum (FBS), 100 IU/ml of penicillin and 100 µg/ml of streptomycin and 2 mM L‐glutamine in 75 cm2 flasks, and kept in 5% CO2 incubator at 37 °C (Mannerström, Toimela, Sarkanen & Heinonen, 2017).
Exponentially growing cells were harvested, counted with haemocytometer and diluted with a particular medium. Cell culture with the concentration of 6x10^4cells/ml was prepared and introduced (100 µL/well) into 96-well plates. After overnight incubation, medium was removed and 200 µL of fresh medium was added with different concentrations of compounds (1 -30µM). After 48 hrs, 200 µL MTT (0.5 mg/ml) was added to each well and incubated further for 3 hrs.
Subsequently, 100µL of DMSO was added to each well. The extent of MTT reduction to formazan within cells was calculated by measuring the absorbance at 550 nm, using a micro plate reader (Spectra Max plus, Molecular Devices, CA, USA). The cytotoxicity was recorded as concentra tion causing 50% growth inhibition (IC50) for BJ cells. The percent inhibition was calculated by using the following […]
Following concentrations were used to calculate (in case) of IC50: […]

[1] = system: PC3 cells (Prostate Cancer); test: PC3 cells (Prostate Cancer) MTT assay; format: cell-based; settings: for IC50: MTT assay, 48 hrs, ± SD from three independent experiments, NA: did not show anticancer activity at 30 µM; for anticancer activity against PC3 prostate cancer cell line (in words): in comparison to doxorubicin
Method: as §1
The Biological Activity Assays Protocols
A. PC3 cells (Prostate Cancer) assay […]
For this purpose, PC3 cells (Prostate Cancer) were cultured in Dulbecco’s Modified Eagle Medium, supplemented with 5% of fetal bovine serum (FBS), 100 IU/ml of penicillin and 100 µg/ml of streptomycin in 75 cm2 flasks, and kept in 5% CO2 incubator at 37 °C. Exponentially growing cells were harvested, counted with haemocytometer and diluted with a particular medium. Cell culture with the concentration of 1x10^5 cells/ml was prepared and introduced (100 µL/well) into 96-well plates. After overnight incubation, medium was removed and 200 µL of fresh medium was added with different concentrations of compounds (1-30µM). After 48 hrs, 200 µL MTT (0.5 mg/ml) was added to each well and incubated further for 4 hrs. Subsequently, 100µL of DMSO was added to each well. The extent of MTT reduction to formazan within cells was calculated by measuring the absorbance at 570 nm, using a micro plate reader (Spectra Max plus, Molecular Devices, CA, USA). The cytotoxicity was recorded as concentration causing 50% growth inhibition (IC50) for PC3 cells. The percent inhibition was calculated by using the following formula: […]
(§4) of positive control – mean of O.D of negative control)*100).
(§5) The results (% inhibition) were processed by using Soft- Max Pro software (Molecular Device, USA).
Standard drug used in the MTT assay was doxorubicin.
(§6) 1. Mosmann T. Rapid colorimetric assay for cellular growth and survival: application to proliferation and cytotoxicity assays. J Immunol Meth 1983, 65, 55–63. […]

[2] = system: HeLa cells (Cervical Cancer); test: HeLa cells (Cervical Cancer) MTT assay; format: cell-based; settings: ± SD from three independent experiments, NA: did not show anticancer activity at 30 µM
Method: (§7) Cytotoxicity against BJ Human fibroblast cells, and anti-cancer activity against PC3, HeLa and MCF-7 cancer cell lines were evaluated by following the procedure as described in the literature (Supplementary Materials). […]
as §4, §5
(§8) Following concentrations were used to calculate (in case) of IC50:
as §3
C. HeLa cells (Cervical Cancer) assay
Cytotoxic activity of compounds was evaluated in 96-well flat-bottomed micro plates by using the standard MTT (3-[4, 5-dimethylthiazole-2-yl]-2, 5-diphenyl-tetrazolium bromide) colorimetric assay40.
For this purpose, HeLa cells (Cervical Cancer) were cultured in Minimum Essential Medium Eagle, supplemented with 5% of fetal bovine serum (FBS) , 100 IU/ml of penicillin and 100 µg/ml of streptomycin in 75 cm2 flasks, and kept in 5% CO2 incubator at 37 °C. Exponentially growing cells were harvested, counted with haemocytometer and diluted with a particular medium. Cell culture with the concentration of 6x10^4 cells/ml was prepared and introduced (100 µL/well) into 96 -well plates. After overnight incubation, medium was removed and 200 µL of fresh medium was added with different concentrations of compounds (1-30µM). After 48 hrs, 200 µL MTT (0.5 mg/ml) was added to each well and incubated further for 4 hrs. Subsequently, 100µL of DMSO was added to each well. The extent of MTT reduction to formazan within cells was calculated by measuring the absorbance at 570 nm, using a micro plate reader (Spectra Max plus, Molecular Devices, CA, USA). The cytotoxicity was recorded as concentration causing 50% growth inhibition (IC 50) for HeLa. The percent inhibition was calculated by using the following formula: […]
The results (% inhibition) were processed by using Soft - Max Pro software (Molecular Device, USA).
as §6

[3] = system: MCF-7 breast cancer cell line; test: MCF-7 breast cancer cell line MTT assay; format: cell-based; settings: Homo sapiens, MCF7, 48 h, MTT assay, 48 hours; ± SD from three independent experiments; NA: did not show anticancer activity at 30 µM
Method: as §7, §2, §8, §3
D. MCF-7 breast cancer cell line assay.
MTT assay is a rapid and quantitative assay capable of measuring the surviving or proliferating cells.
It is based on the reduction of tetrazolium salt MTT (3-(4,5-dimethylthiazol-yl)-2,5-diphenyl tetrazolium bromide) by various dehydrogenase enzymes present in living cells. The tetrazolium ring present in MTT is cleaved in active mitochondria, which results in production of purple colored formazan crystals. These crystals are dissolved in DMSO and optical density of the color produced is taken by spectrophotometer (ELISA reader), with high efficiency and accuracy.
This assay was optimized and slightly modified according to our cell lines, i.e. MCF-7 breast cancer cell […]
1. MCF-7 cell line were cultured in Dulbecco’s modified Eagle medium (containing 10% fetal bovine serum) in 75 cc flasks, and kept in 5% CO 2 incubator at 37 °C.
2. Upon confluency, cells were harvested and plated in 96-well tissue culture treated flat bottom plates (seeding density 8,000 cells/well for MCF-7) in 100 µL medium.
3. Next day, compounds were added in triplicate at 50 µM concentration, and incubated for 48 hours. For natural extracts, the concentration was 50 µg/mL.
4. After 48 hrs incubation, the compounds were removed and 200 µL MTT at 0.5 mg/mL was added to each well and incubated at 37 °C for 3 hours.
5. Formazan crystals, formed by reduction of MTT were dissolved in 100 µL DMSO and absorbance was taken at 570 nm using micro-plate reader (Spectra Max plus, Molecular […]
6. The percent inhibition or decrease in viable cells was calculated by following formula:
% Inhibition = 100 - (mean of O.D. of test compound - mean of O.D. of negative control) / (mean of O.D. of positive control - mean of O.D. of negative control) x 100) […]
Twenty (20) mM stock concentration of compounds were diluted to working concentration of 50 µM, and then further serial dilutions were made in order to get less than 50% inhibition.
The IC50 was then calculated by using EZ-fit5 software.

SMILES | IC50 (Human fibroblast BJ) [µM] | IC50 ([1]; Homo sapiens, PC-3, 48 h) [µM] | IC50 ([2]; Homo sapiens, HeLa, 48 h) [µM] | melting point [°C] | IC50 [1] [µM] | anticancer activity against PC3 prostate cancer cell line (in words) [1] | IC50 ([1]; listed as doxorubicin) [µM] | IC50 ([2]; 48 hrs) [µM] | IC50 ([2]; 48 hrs, listed as doxorubicin) [µM] | IC50 [3] [µM]
O=C(CC(c1cc2ccccc2o1)c1c[nH]c2ccccc12)c1ccc(Br)cc1 (stereo not shown) [Compound 3d, 3-(Benzofuran-2-yl)-1-(4-bromophenyl)-3-(1H-indol-3-yl)propan-1-one] | > 30 | 26.3 ± 0.8 | 12.6 ± 0.4 | 108 to 109 | – | – | – | – | – | –
O=C(CC(c1cc2ccccc2o1)c1c[nH]c2cc(F)ccc12)c1ccc(Br)cc1 (stereo not shown) [Compound 3e, 3-(Benzofuran-2-yl)-1-(4-bromophenyl)-3-(6-fluoro-1H-indol-3-yl)propan-1-one] | > 30 | 7.8 ± 0.4 | 13.6 ± 0.4 | 123 to 124 | – | – | – | – | – | –
O=C(CC(c1cc2ccccc2o1)c1c[nH]c2cc(F)ccc12)c1ccc(Cl)cc1 (stereo not shown) [Compound 3g, 3-(Benzofuran-2-yl)-1-(4-chlorophenyl)-3-(6-fluoro-1H-indol-3-yl)propan-1-one] | > 30 | 22 ± 1.3 | 14.7 ± 1.1 | 112 to 113 | 20 ± 1.3 | – | – | – | – | –
O=C(CC(c1cc2ccccc2s1)c1c[nH]c2ccccc12)c1ccc(Br)cc1 (stereo not shown) [Compound 3h, 3-(Benzo[b]thiophen-2-yl)-1-(4-bromophenyl)-3-(1H-indol-3-yl)propan-1-one] | > 30 | 29.7 ± 0.4 | – | 121 to 122 | – | – | – | – | – | –
O=C(CC(c1cc2ccccc2o1)c1c[nH]c2cc(F)ccc12)c1ccccc1[N+](=O)[O-] (stereo not shown) [Compound 3i, 3-(Benzofuran-2-yl)-3-(6-fluoro-1H-indol-3-yl)-1-(2-nitrophenyl)propan-1-one] | – | – | 15.2 ± 0.6 | 139 to 140 | – | complete loss of anticancer activity | – | – | – | –
O=C(CC(c1cc2ccccc2o1)c1c[nH]c2ccc(Br)cc12)c1ccccc1[N+](=O)[O-] (stereo not shown) [Compound 3j, 3-(Benzofuran-2-yl)-3-(5-bromo-1H-indol-3-yl)-1-(2-nitrophenyl)propan-1-one] | – | 16 ± 0.1 | 17.3 ± 0.7 | 173 to 174 | – | – | – | – | – | –
O=C(CC(c1cc2ccccc2o1)c1c[nH]c2ccccc12)c1ccccc1[N+](=O)[O-] (stereo not shown) [Compound 3k, 3-(Benzofuran-2-yl)-3-(1H-indol-3-yl)-1-(2-nitrophenyl)propan-1-one] | – | – | 14.9 ± 0.6 | 154 to 155 | – | – | – | – | – | –
COc1cccc(C(=O)CC(c2cc3ccccc3o2)c2c[nH]c3ccccc23)c1 (stereo not shown) [Compound 3l, 3-(Benzofuran-2-yl)-3-(1H-indol-3-yl)-1-(3-methoxyphenyl)propan-1-one] | > 30 | 16.3 ± 1.6 | 11.1 ± 0.6 | 162 to 163 | – | – | – | – | – | –
O=C(CC(c1cc2ccccc2s1)c1c[nH]c2ccccc12)c1ccccc1 (stereo not shown) [Compound 3n, 3-(Benzo[b]thiophen-2-yl)-3-(1H-indol-3-yl)-1-phenylpropan-1-one] | > 50 | 20.4 ± 0.4 | 12.4 ± 0.2 | 159 to 160 | – | – | – | – | – | –
O=C(CC(c1cc2ccccc2s1)c1c[nH]c2ccccc12)c1ccc(Cl)cc1 (stereo not shown) [Compound 3o, 3-(Benzo[b]thiophen-2-yl)-1-(4-chlorophenyl)-3-(1H-indol-3-yl)propan-1-one] | > 50 | 29.7 ± 0.1 | 13.8 ± 0.3 | 150 to 151 | – | – | – | – | – | –
O=C(CC(c1cc2ccccc2s1)c1c[nH]c2ccccc12)c1ccc(F)cc1 (stereo not shown) [Compound 3p, 3-(Benzo[b]thiophen-2-yl)-1-(4-fluorophenyl)-3-(1H-indol-3-yl)propan-1-one] | > 50 | 27.6 ± 0.1 | 12.7 ± 0.1 | – | – | – | – | – | – | –
O=C(CC(c1cc2ccccc2s1)c1c[nH]c2ccccc12)c1ccc(C(F)(F)F)cc1 (stereo not shown) [Compound 3q, 3-(Benzo[b]thiophen-2-yl)-3-(1H-indol-3-yl)-1-(4-(trifluoromethyl)phenyl)propan-1-one] | > 50 | 18 ± 0.3 | 18.8 ± 0.2 | 165 to 166 | – | – | – | – | – | –
COc1ccccc1C(=O)CC(c1cc2ccccc2o1)c1c[nH]c2ccccc12 (stereo not shown) [Compound 3r, 3-(Benzofuran-2-yl)-3-(1H-indol-3-yl)-1-(2-methoxyphenyl)propan-1-one] | – | 20.4 ± 0.4 | 12.4 ± 0.2 | 67 to 68 | – | inactive | – | – | – | –
COc1cccc2c1C(=O)c1c(O)c3c(c(O)c1C2=O)C[C@@](O)(C(=O)CO)C[C@@H]3O[C@H]1C[C@H](N)[C@H](O)[C@H](C)O1 [Doxorubicin, doxorubicin, reference compound] | – | – | – | – | 1.9 ± 0.4 | – | 0.9 ± 0.14 | 0.9 ± 0.14 | 1.9 ± 0.4 | 0.79 ± 0.05
